Laboratory results from PubChem BioAssay AID2382 (Broad Institute, 2010).
Results filed as inconclusive are left out. Calls of active or inactive are those of the source.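 How the source made its calls: active means IC50 at or below a set limit past the top dose tested; inconclusive means flat curve with 30 to 70% signal change, or a failed fit; inactive means IC50 above that set limit.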

Tested on: NIH3T3-HGL HSF1-luciferase reporter, MG132-induced, 8 h
Test: inhibition of MG132-induced HSE-luciferase signal, confirmation, cell-based, NIH3T3, luminescence, dose retest (AID 2382)

Compound | IC50
Cc1cc(=O)[nH]c(NN=C2CCC(C(C)(C)C)CC2)n1 (stereo not drawn) | > 19.5 µM (inactive)
C#CCOCCOCCOCCNc1nc(N2CCN(C(=O)[C@H](CCC(=O)O)n3cc(C(N)Cc4ccc(O)cc4)nn3)CC2)nc(N2CCN(C(=O)[C@H](Cc3ccc(O)cc3)n3cc(C(N)[C@H](C)CC)nn3)CC2)n1 (stereo partly drawn) | > 19.5 µM (inactive)
O=C(NN=C1CCC(c2ccccc2)CC1)c1cc2c(s1)CCCC2 (stereo not drawn) | > 19.5 µM (inactive)
